Measured values reported in paper PMC11694556 (Proteins, 2024).
pKd: −log10 of the molar value. One block for each compound: values may come before it.

Tests used:
Assay type in all cases: binding
[1] = molecular target: T1, cypin (cytosolic PSD-95 interactor; guanine deaminase) (Rattus norvegicus, UniProt Q9WTT6); test: intrinsic tryptophan fluorescence quenching; also NADH-coupled assay (Km […]) and LC-MS of deaminated product
T1 construct: gene Gda
T1 sequence (Q9WTT6 1-454): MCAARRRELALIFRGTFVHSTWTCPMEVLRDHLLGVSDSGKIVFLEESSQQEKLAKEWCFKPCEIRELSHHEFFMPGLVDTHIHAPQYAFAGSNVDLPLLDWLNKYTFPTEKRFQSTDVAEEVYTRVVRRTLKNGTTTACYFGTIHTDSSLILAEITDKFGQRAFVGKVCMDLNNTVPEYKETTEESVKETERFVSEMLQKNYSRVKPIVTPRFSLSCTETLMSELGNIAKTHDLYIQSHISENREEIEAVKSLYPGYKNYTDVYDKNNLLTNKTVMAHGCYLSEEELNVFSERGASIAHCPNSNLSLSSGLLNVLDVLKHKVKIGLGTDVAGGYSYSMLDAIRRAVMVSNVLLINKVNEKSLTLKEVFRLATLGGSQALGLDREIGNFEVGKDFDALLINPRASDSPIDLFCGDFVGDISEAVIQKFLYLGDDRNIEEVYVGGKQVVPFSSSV

[2] = molecular target: T1, cypin (cytosolic PSD-95 interactor; guanine deaminase); test: intrinsic tryptophan fluorescence quenching (Hill fit); also Amplex Red coupled xanthine oxidase/uricase assay
[3] = molecular target: T1, cypin (cytosolic PSD-95 interactor; guanine deaminase); test: intrinsic tryptophan fluorescence quenching; also NADH-coupled deaminase assay (Km […])

pKd [1]: 4.13
SMILES: CC(C)[C@H](N)C(=O)OCCOCn1cnc2c(=O)[nH]c(N)nc21 [valacyclovir]

pKd [2]: 3.64
SMILES: Nc1nc2c(ncn2COCCO)c(=O)[nH]1 [acyclovir]

SMILES: Nc1nc2nc[nH]c2c(=O)[nH]1 [guanine]
pKd [3]: 6.22
